Substitutions are numbered along the chain they refer to.
Experiments:
APEX2 (SEQ ID NO:1) = biological target: T1, APEX2 (SEQ ID NO:1) (Glycine max, UniProt Q43758, A134P/E112K/K14D/W41F); assay: Oxidation of DHT by APEX2, UV-Vis initial rates and kinetic parameters; assay type: biochemical; settings: PBS, 100 μM EDTA, first 100 s; for Initial rate of oxidation of DHT by APEX2 (SEQ ID NO: 1) + SOD: SOD 1 μM
T1 sequence (Q43758 1-250 A134P/E112K/K14D/W41F): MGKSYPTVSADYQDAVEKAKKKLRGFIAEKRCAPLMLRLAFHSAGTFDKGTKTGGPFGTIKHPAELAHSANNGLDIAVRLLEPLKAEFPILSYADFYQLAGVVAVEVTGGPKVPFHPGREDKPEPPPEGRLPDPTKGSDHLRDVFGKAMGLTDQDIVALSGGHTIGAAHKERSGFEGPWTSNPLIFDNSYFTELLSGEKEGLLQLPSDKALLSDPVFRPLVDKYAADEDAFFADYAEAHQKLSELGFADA
Protocol: (§1) UV-Vis and fluorescence measurements were conducted in quartz cuvettes. All reactions were conducted in phosphate buffered saline (PBS) containing 100 μM EDTA with a pH=7.4. The PBS was prepared by adding 25 mM phosphate salts (Na2HPO4 and NaH2PO4), 100 mM NaCl, 100 μM EDTA to DI water. EDTA was added to quench free metals that can oxidize DHT. The buffer was pH adjusted to 7.4 using 1 mM HCl and 1 mM NaOH. UV experiments were stirred at 25° C. in a temperature-controlled cuvette holder of the spectrophotometer. Solutions of 15 or 16 were prepared from methanol stock solutions.
15 or 16 (60 μM) from methanol stock solutions was added to PBS containing 100 μM EDTA. After 10s, APEX2 (SEQ ID NO:1) (275 nM) was dosed in and oxidation was monitored at 325 nm for 15 and 285 nm for 16 at 60s intervals (FIG. 10B-C).
16 (15 μM) DHT from methanol stock solutions was added to PBS containing 100 μM EDTA. After 10s, APEX2 (SEQ ID NO:1) (275 nM) or HRP (15 nM) was dosed in and oxidation was monitored at 285 nm at 10s intervals (FIG. 10D)
(§2) SOD (1 μM) was added to PBS containing 100 μM EDTA. 15 or 16 (60 μM) was added from methanol stock solutions. After 10s, APEX2 (SEQ ID NO:1) or F41A APEX2 (275 nM) was dosed in and oxidation was monitored at 325 nm for 15 and 285 nm for 16 at 60s intervals.
(§3) The initial rate of oxidation was calculated from the first 100 seconds after APEX2 (SEQ ID NO:1) or F41A APEX2 was added ([…]). In the assays where SOD was added, SOD (1 μM) was added to PBS containing 100 μM EDTA and 15 or 16 was dosed in. 10 seconds later, APEX2 (SEQ ID NO:1) or F41A APEX2 ([…]) was added and the rate of oxidation was calculated from the first 100 seconds after APEX2 (SEQ ID NO:1) or F41A APEX2 ([…]) addition. The initial rate of oxidation was adjusted to background oxidation of DHT in PBS with 100 μM EDTA. Kinetic parameters (Table 2) were determined using GraphPad's Prism 6 software from the data presented below (Table 3-4).

F41A APEX2 = biological target: T2, F41A APEX2 (Glycine max, UniProt Q43758, A134P/E112K/K14D/W41A); assay: Oxidation of DHT by F41A APEX2, UV-Vis initial rates and kinetic parameters; assay type: biochemical; settings: for Initial rate of oxidation of DHT by F41A APEX2 + SOD: SOD 1 μM, PBS, 100 μM EDTA, first 100 s
T2 sequence (Q43758 1-250 A134P/E112K/K14D/W41A): T1 sequence (Q43758 1-250 A134P/E112K/K14D/W41F) with F41A
Protocol: as §1, §2, §3

[1] = NIR photocatalytic oxidation/Diels-Alder/payload release (methylene blue, 660 nm LED)
Protocol: Encouraged by calculation, the inventors synthesized the compound 7, where p-nitrophenol serves as a model payload that can be readily monitored by UV and NMR (FIG. 7, panel A). To study the Diels-Alder/elimination sequence […], the inventors chose to oxidize 7 with Dess-Martin periodinane—a reagent that instantaneously oxidizes dihydrotetrazines to tetrazines. […] Upon LED irradiation (660 nm, 9.1 mW/cm^2) of 7 (28 μM) in MeOH in the presence of catalytic methylene blue (7 μM), complete oxidation/Diels-Alder/payload release within 15 minutes was observed (FIG. 7, panel B). In this photocatalytic reaction, aliquots by ESI-MS were analyzed, and intermediates 8 and 9 were not detected.
[…]. […] The reaction of 12 to produce 13 and 14 could also be promoted by irradiating a solution of 12 in 60% H2O/MeOH for 30 min with a 660 nm LED light source in the presence of catalytic amounts of methylene blue with monitoring by UV-Vis. The complete conversion to product 13 could be observed by UV-vis within 30 minutes.

[2] = Tetrazine hydrolytic stability in PBS; assay type: physicochemical; settings: 800 μM, PBS buffer, 25° C.
Excerpt: A challenge to the development of catalytic methods for turning on the tetrazine ligation was the identification of a DHTz/Tz pair that would be stable in both oxidation states (FIG. 1, panel B). For most redox couples, either the DHTz is too readily oxidized in air (e.g., 1), or the Tz is too reactive toward water and other nucleophiles (e.g., 2). The inventors show here that the dipyridyl DHTz/Tz pair (3/4) has good stability in both states (FIG. 1, panel C). Dihydrotetrazines 3 are highly resistant toward background oxidation in organic solvents, and a number of derivatives have been synthesized and shown stable even to silica gel chromatography. […] Aqueous solutions of 3a were handled in glassware that had been first rinsed with 2.0 mM EDTA in PBS to remove adventitious metal impurities. After standing in the dark at 25° C. in PBS buffer, a solution of 3a was monitored by UV-vis and shown to retain 99 and 96% of the DHTz oxidation state over 30 min and 2.5 hours respectively. […] In PBS containing 10% mouse serum, 90% of 3a was retained in the DHTz oxidation state after 1 h. […]
Solutions (1 mL) containing 4a (800 μM) in PBS buffer were prepared in cuvettes from stock solutions. Tetrazine concentration was measured by recording the absorbance at 525 nm every 20 minutes while holding the cuvette at either 25 for 24 hours.

With `CCCCNC(=O)C1=NNC(c2ccccn2)=NN1` [compound 16] the “Initial rate of oxidation of DHT by APEX2 (SEQ ID NO: 1) + SOD” value (shortened to “Initial rate … (SEQ ID NO: 1) + SOD”) (APEX2 (SEQ ID NO:1); DHT 4 μM) was 0.429 +/− 0.022 ×10^−8 M/s, the “Initial rate of oxidation of DHT by APEX2 (SEQ ID NO: 1)” value (APEX2 (SEQ ID NO:1); DHT 5 μM) was 0.319 +/− 0.056 ×10^−8 M/s and the “Initial rate of oxidation of DHT by APEX2 (SEQ ID NO: 1)” value (APEX2 (SEQ ID NO:1); DHT 10 μM) was 0.673 +/− 0.002 ×10^−8 M/s. For the same compound, the “Initial rate … (SEQ ID NO: 1) + SOD” value (APEX2 (SEQ ID NO:1); DHT 10 μM) was 1.011 +/− 0.170 ×10^−8 M/s, the “Initial rate of oxidation of DHT by APEX2 (SEQ ID NO: 1)” value (APEX2 (SEQ ID NO:1); DHT 15 μM) was 0.810 +/− 0.081 ×10^−8 M/s and the “Initial rate … (SEQ ID NO: 1) + SOD” value (APEX2 (SEQ ID NO:1); DHT 15 μM) was 1.662 +/− 0.004 ×10^−8 M/s. For the same compound, the “Initial rate of oxidation of DHT by APEX2 (SEQ ID NO: 1)” value (APEX2 (SEQ ID NO:1); DHT 20 μM) was 1.169 +/− 0.095 ×10^−8 M/s, the “Initial rate of oxidation of DHT by APEX2 (SEQ ID NO: 1)” value (APEX2 (SEQ ID NO:1); DHT 30 μM) was 1.131 +/− 0.182 ×10^−8 M/s and the “Initial rate … (SEQ ID NO: 1) + SOD” value (APEX2 (SEQ ID NO:1); DHT 30 μM) was 2.073 +/− 0.046 ×10^−8 M/s. For the same compound, the “Initial rate of oxidation of DHT by APEX2 (SEQ ID NO: 1)” value (APEX2 (SEQ ID NO:1); DHT 40 μM) was 1.427 +/− 0.265 ×10^−8 M/s, the “Initial rate … (SEQ ID NO: 1) + SOD” value (APEX2 (SEQ ID NO:1); DHT 40 μM) was 2.379 +/− 0.350 ×10^−8 M/s and the “Initial rate of oxidation of DHT by APEX2 (SEQ ID NO: 1)” value (APEX2 (SEQ ID NO:1); DHT 45 μM) was 1.376 +/− 0.071 ×10^−8 M/s. The “Initial rate … (SEQ ID NO: 1) + SOD” value (APEX2 (SEQ ID NO:1); DHT 45 μM) was 2.234 +/− 0.088 ×10^−8 M/s, the “Initial rate of oxidation of DHT by APEX2 (SEQ ID NO: 1)” value (APEX2 (SEQ ID NO:1); DHT 50 μM) was 1.438 +/− 0.017 ×10^−8 M/s and the “Initial rate … (SEQ ID NO: 1) + SOD” value (APEX2 (SEQ ID NO:1); DHT 50 μM) was 2.149 +/− 0.009 ×10^−8 M/s. The “Initial rate … (SEQ ID NO: 1) + SOD” value (APEX2 (SEQ ID NO:1); DHT 55 μM) was 2.503 +/− 0.210 ×10^−8 M/s, the “Initial rate of oxidation of DHT by APEX2 (SEQ ID NO: 1)” value (APEX2 (SEQ ID NO:1); DHT 60 μM) was 1.396 +/− 0.123 ×10^−8 M/s and the “Initial rate … (SEQ ID NO: 1) + SOD” value (APEX2 (SEQ ID NO:1); DHT 60 μM) was 2.376 +/− 0.450 ×10^−8 M/s. The “Initial rate … (SEQ ID NO: 1) + SOD” value (APEX2 (SEQ ID NO:1); DHT 70 μM) was 2.746 +/− 0.180 ×10^−8 M/s, the “Initial rate of oxidation of DHT by APEX2 (SEQ ID NO: 1)” value (APEX2 (SEQ ID NO:1); DHT 75 μM) was 1.766 +/− 0.080 ×10^−8 M/s and the “Initial rate of oxidation of DHT by APEX2 (SEQ ID NO: 1)” value (APEX2 (SEQ ID NO:1); DHT 85 μM) was 1.695 +/− 0.114 ×10^−8 M/s. The “Initial rate … (SEQ ID NO: 1) + SOD” value (APEX2 (SEQ ID NO:1); DHT 90 μM) was 2.491 +/− 0.032 ×10^−8 M/s, the “Initial rate of oxidation of DHT by F41A APEX2 + SOD” value (shortened to “Initial rate … by F41A APEX2 + SOD”) (F41A APEX2; DHT 5 μM) was 0.334 +/− 0.010 ×10^−8 M/s and the “Initial rate … by F41A APEX2 + SOD” value (F41A APEX2; DHT 10 μM) was 0.642 +/− 0.035 ×10^−8 M/s. For the same compound, the “Initial rate … by F41A APEX2 + SOD” value (F41A APEX2; DHT 15 μM) was 1.124 +/− 0.034 ×10^−8 M/s, the “Initial rate … by F41A APEX2 + SOD” value (F41A APEX2; DHT 20 μM) was 2.132 +/− 0.035 ×10^−8 M/s and the “Initial rate … by F41A APEX2 + SOD” value (F41A APEX2; DHT 25 μM) was 2.568 +/− 0.131 ×10^−8 M/s. The “Initial rate … by F41A APEX2 + SOD” value (F41A APEX2; DHT 30 μM) was 2.129 +/− 0.076 ×10^−8 M/s, the “Initial rate … by F41A APEX2 + SOD” value (F41A APEX2; DHT 35 μM) was 3.078 +/− 0.025 ×10^−8 M/s and the “Initial rate … by F41A APEX2 + SOD” value (F41A APEX2; DHT 40 μM) was 2.964 +/− 0.011 ×10^−8 M/s. The “Initial rate … by F41A APEX2 + SOD” value (F41A APEX2; DHT 50 μM) was 3.867 +/− 0.049 ×10^−8 M/s, the “Initial rate … by F41A APEX2 + SOD” value (F41A APEX2; DHT 55 μM) was 3.709 +/− 0.336 ×10^−8 M/s and the “Initial rate … by F41A APEX2 + SOD” value (F41A APEX2; DHT 75 μM) was 4.549 +/− 0.150 ×10^−8 M/s. For the same compound, the “Initial rate … by F41A APEX2 + SOD” value (F41A APEX2; DHT 85 μM) was 5.098 +/− 0.571 ×10^−8 M/s and the “factor of increase of rate of catalysis versus APEX2 (SEQ ID NO:1)” value (F41A APEX2; F41A APEX2 mutant with SOD) was 5.

With `CCCCN(C(=O)/C=C/Oc1ccc([N+](=O)[O-])cc1)c1cccnc1C1=NNC(c2ccccn2)=NN1` [compound 7, (E)-N-butyl-3-(4-nitrophenoxy)-N-(2-(6-(pyridin-2-yl)-1,4-dihydro-1,2,4,5-tetrazin-3-yl)pyridin-3-yl)acrylamide] the “time to complete oxidation/Diels-Alder/payload release” value ([1]; 28 μM in MeOH, methylene blue 7 μM, LED 660 nm 9.1 mW/cm^2) was at most 15 min.

With `COCCOCCOCCOCCOCCOCCOCCOCCOc1ccc(C2=NNC(c3ncccc3N(C)C(=O)/C=C/Oc3ccc(N(CCCl)CCCl)cc3)=NN2)nc1` [compound 12, (E)-N-(2-(6-(5-(2,5,8,11,14,17,20,23-octaoxapentacosan-25-yloxy)pyridin-2-yl)-1,4-dihydro-1,2,4,5-tetrazin-3-yl)pyridin-3-yl)-3-(4-(bis(2-chloroethyl)amino)phenoxy)-N-methylacrylamide] the “time to complete conversion to product 13” value ([1]; 60% H2O/MeOH, 660 nm LED, catalytic methylene blue, UV-vis) was at most 30 min.

`O=C(O)CCC(=O)Nc1ccc(-c2nnc(-c3ccccn3)nn2)nc1` [4a, 4-oxo-4-((6-(6-(pyridin-2-yl)-1,2,4,5-tetrazin-3-yl)pyridin-3-yl)amino)butanoic Acid] gave a tetrazine fidelity ([2]; 2 h) of 98% and a tetrazine fidelity ([2]; 24 h) of 83%.
